Experimental data taken from PubChem BioAssay (NCI).
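Cells were grown in 96-well plates and exposed to each compound for 48 hours at five concentrations; endpoints were interpolated linearly between bracketing concentrations, or set to the highest concentration if not reached. TGI is the concentration that stops growth completely.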

Experiments:
Test in all cases: DTP human tumour cell line panel, 48 h
CAKI-1 renal = system: CAKI-1 renal
SK-MEL-2 melanoma = system: SK-MEL-2 melanoma
HOP-92 NSCLC = system: HOP-92 NSCLC
A498 renal = system: A498 renal
KM12 colon = system: KM12 colon
SF-268 CNS = system: SF-268 CNS
OVCAR-5 ovarian = system: OVCAR-5 ovarian
SW-620 colon = system: SW-620 colon
OVCAR-3 ovarian = system: OVCAR-3 ovarian
PC-3 prostate = system: PC-3 prostate
UACC-62 melanoma = system: UACC-62 melanoma
MCF7 breast = system: MCF7 breast

Structure (SMILES)	TGI (CAKI-1 renal)	TGI (SK-MEL-2 melanoma)	TGI (HOP-92 NSCLC)	TGI (A498 renal)	TGI (KM12 colon)	TGI (SF-268 CNS)	TGI (OVCAR-5 ovarian)	TGI (SW-620 colon)	TGI (OVCAR-3 ovarian)	TGI (PC-3 prostate)	TGI (UACC-62 melanoma)	TGI (MCF7 breast)
Cc1nc2c(sc3nc4ccccc4n32)c(=O)[nH]1	> 100 µM	> 100 µM	> 100 µM	> 100 µM	> 100 µM	> 100 µM	> 100 µM	> 100 µM	> 100 µM	> 100 µM	> 100 µM	> 100 µM
O=C(CSCC(=O)N/N=C\c1ccc(-c2ccccc2)cc1)N/N=C\c1ccc(-c2ccccc2)cc1	> 100 µM	83.4 µM	> 100 µM		49.2 µM	53.9 µM	74.8 µM	38.4 µM	30 µM	88.1 µM	62.4 µM	> 100 µM
COc1ccc(CCNC(=O)Cc2cc(OC)c(OC)cc2CO)cc1OC	> 100 µM	> 100 µM	> 100 µM	> 100 µM	> 100 µM	> 100 µM	> 100 µM	> 100 µM	> 100 µM	> 100 µM	> 100 µM	> 100 µM
O=[N+]([O-])c1ccc2nc(/C=C(\O)c3ccc(F)cc3)c(/C=C(\O)c3ccc(F)cc3)nc2c1	> 100 µM	45.2 µM	> 100 µM	52.3 µM	> 100 µM	> 100 µM	> 100 µM	> 100 µM	> 100 µM	> 100 µM	> 100 µM	> 100 µM
CC(C)CCn1c(=O)c2c(=O)[nH][nH]c2c2ccccc21			> 100 µM	> 100 µM	> 100 µM		> 100 µM	> 100 µM	> 100 µM	> 100 µM		> 100 µM
CC(=O)Nc1ccc2c3c(cc(O)c2c1)N(C(=O)CCCCC(=O)Nc1ccc2c4c(cc(O)c2c1)N(C(=O)OC(C)(C)C)CC4CCl)CC3CCl (stereo unspecified)	71.5 µM	3.49 µM	32.8 µM	4.57 µM	> 100 µM	7.21 µM	10.6 µM	> 100 µM	5.41 µM	> 44.8 µM	3.16 µM	5.16 µM
O=[N+]([O-])c1cccnc1NCC1(CO)CC(Cc2ccccc2)C1 (stereo unspecified)	> 100 µM	> 100 µM	60.1 µM	> 100 µM	> 100 µM	> 100 µM	> 100 µM	> 100 µM	> 100 µM	> 100 µM	> 100 µM	> 100 µM
Cc1c(NC(=S)Nc2ccc(Cl)cc2)c(=O)n(-c2ccccc2)n1C	> 100 µM		> 100 µM	> 100 µM	> 100 µM	> 100 µM	> 100 µM	> 100 µM	> 100 µM	> 100 µM	> 100 µM	> 100 µM
COc1cccc(NC(=O)CC(=O)N2N=C(C)C(N=Nc3ccc(S(=O)(=O)c4ccc(N=NC5C(=O)N(C(=O)CC(=O)Nc6cccc(OC)c6)N=C5C)cc4)cc3)C2=O)c1 (stereo unspecified)	> 100 µM	> 100 µM	> 100 µM	> 100 µM	> 100 µM	> 100 µM	> 100 µM	> 100 µM	> 100 µM	> 100 µM	> 100 µM	> 100 µM
CN(C)c1ccc(/C=C/C=C(/C#N)c2ccccc2)cc1	> 100 µM	> 93 µM	> 100 µM	98.5 µM	34.1 µM	> 100 µM	> 100 µM	72.5 µM	28.5 µM	> 100 µM	> 100 µM	> 87.9 µM
COCc1cc2c(cc1/C=C/[N+](=O)[O-])OCO2	34.2 µM		36.8 µM	30.8 µM	35.8 µM	40.4 µM	30.6 µM	40.7 µM	33.7 µM	24.6 µM	32 µM	48.9 µM
Cc1ccc(Nc2cc(=O)[nH]c(=S)[nH]2)cc1	> 100 µM	> 100 µM	> 100 µM	> 100 µM	> 100 µM	> 100 µM	> 100 µM	> 100 µM	> 100 µM	> 100 µM	> 100 µM	> 100 µM
COC(=O)c1c(C)cccc1/C=C1\Cc2cc(C)cc(C)c2C1=O	> 100 µM	57.3 µM	39.4 µM	> 100 µM	> 100 µM	> 100 µM	> 100 µM	> 100 µM	> 100 µM	> 100 µM	48.6 µM	> 100 µM
Clc1ccc(C2NN=C3c4ccccc4OCC32)cc1 (stereo unspecified)	> 100 µM	15.5 µM	> 100 µM	92.6 µM	> 37.9 µM	> 81 µM	> 100 µM	> 25.3 µM	29.6 µM	64.3 µM	> 47.2 µM	> 45.2 µM
CC(=O)Nc1ccc2[nH]c(-c3cccc(F)c3)cc(=O)c2c1	> 100 µM	[…]	> 55.1 µM	> 59.8 µM	> 100 µM		> 100 µM	> 100 µM		> 100 µM	> 31 µM	> 100 µM
CN(CCc1ccc(N)cc1)[C@H]1CCCC[C@H]1N1CCCC1	> 100 µM	> 100 µM	> 100 µM	> 100 µM	> 100 µM	> 100 µM	> 100 µM	> 100 µM	> 100 µM	> 100 µM	> 100 µM	> 100 µM
Cc1ccc2c(n1)C(=O)c1ccccc1C2=O	> 89.2 µM	> 89 µM	> 100 µM	> 88.4 µM	> 100 µM	> 100 µM	> 56.5 µM	> 95.4 µM	16.5 µM	68.8 µM	43.6 µM	38.8 µM
Cc1cccc2c1NC(=S)[C@@H]1CCCN1C2=O	> 100 µM	> 100 µM	> 100 µM	> 100 µM	> 100 µM	> 100 µM	> 100 µM	> 100 µM	> 100 µM	> 100 µM	> 100 µM	> 100 µM
O=C(N/N=C\c1ccc2ccccc2c1)Nc1ccc([N+](=O)[O-])cc1	> 100 µM	> 73.5 µM	38.5 µM		> 100 µM	> 89.9 µM	62.9 µM	> 100 µM	55.4 µM	> 73 µM	> 74.8 µM	> 100 µM

Structure (SMILES)	TGI (CAKI-1 renal)	TGI (SK-MEL-2 melanoma)	TGI (HOP-92 NSCLC)	TGI (A498 renal)	TGI (KM12 colon)	TGI (SF-268 CNS)	TGI (OVCAR-5 ovarian)	TGI (SW-620 colon)	TGI (OVCAR-3 ovarian)	TGI (PC-3 prostate)	TGI (UACC-62 melanoma)	TGI (MCF7 breast)
COCCOCCOC1=C(Cl)C(=O)c2c(O)ccc(O)c2C1=O	3.17 µM	4.86 µM	3.95 µM	13.9 µM	31.9 µM	7.26 µM	22.6 µM	0.562 µM	3.19 µM	17.5 µM	7.85 µM	4.62 µM
Cn1c2ccccc2c(=NNc2ccc(C(=O)O)cc2)c2ccccc21	63.4 µM	40.7 µM	57.7 µM		50.3 µM	48 µM	48 µM	65.3 µM	49.6 µM	43.9 µM	44.1 µM	26.5 µM
C=CC[C@H]1[C@H](O[Si](C)(C)C(C)(C)C)C=CC(=O)[C@@H]1CC(=O)N(Cc1ccccc1)Cc1ccccc1	90.2 µM	38.3 µM	8.51 µM	> 100 µM	> 100 µM	93.4 µM	> 100 µM	> 100 µM	67 µM	> 100 µM	> 100 µM	> 100 µM
COc1ccc(CC2NC(=O)/C=C/CC(C(C)C3OC3c3ccccc3)OC(=O)C(CC(C)C)OC(=O)C(C)CNC2=O)cc1Cl (stereo unspecified)	> 0.1 µM	> 0.1 µM	> 0.1 µM	3.66e-05 µM	> 0.1 µM	> 0.1 µM	> 0.1 µM	> 0.1 µM	0.000584 µM	> 0.1 µM		> 0.1 µM
Nc1nc(Cl)cc(Nc2cc(Cl)cc(Cl)c2)n1	48.2 µM	38.1 µM	40.3 µM	44.3 µM	37.7 µM	40.4 µM	76.7 µM	41.1 µM	48.6 µM	41.5 µM	33.5 µM	41.6 µM
OC1COC(n2c3ccc(Br)cc3c3ccc4c5ccccc5[nH]c4c32)C(O)C1O (stereo unspecified)	10.6 µM	19.8 µM	9.38 µM	13.9 µM	3.53 µM	19.9 µM	12.4 µM	29.4 µM	12.5 µM	12 µM	1.53 µM	14.2 µM
c1cc2c(c(-c3c4ccccc4nc4ccccc34)c1)CC1(CC2)OCCO1	> 100 µM	> 100 µM	> 100 µM	> 100 µM	> 100 µM	> 100 µM	> 100 µM	> 100 µM	> 100 µM	> 100 µM		> 100 µM
C[Si](C)(OCCS(=O)(=O)O)C1S(=O)(=O)OCCOS1(=O)=O	84 µM		> 100 µM	> 100 µM	> 100 µM	> 100 µM	> 100 µM	> 100 µM	> 100 µM	> 100 µM	> 100 µM	> 100 µM
O=S1C2=C(Cc3ccccc3)C(Cc3ccccc3)=C1CCc1cccc(c1)CC2	28.7 µM	31.1 µM	26.4 µM		26.7 µM	31.8 µM	35.5 µM	77.9 µM	23.5 µM	29.3 µM	24.7 µM	25.7 µM
N#CC1(C#N)NC(c2ccsc2)C(C#N)(C#N)NC1c1ccsc1 (stereo unspecified)	> 100 µM	> 100 µM	> 100 µM	> 100 µM	> 100 µM	> 100 µM	> 100 µM	> 100 µM	> 100 µM	> 100 µM	> 100 µM	> 100 µM
COC(=O)/N=[N+](\[O-])C(c1ccc(OC)cc1)C1CCCCC1 (stereo unspecified)	10.3 µM	31.8 µM	36.8 µM	25.3 µM	16.7 µM	37.9 µM	11.9 µM	24.3 µM	33.2 µM	22.5 µM	25 µM	> 100 µM
C1=C\CCCCN2C[C@H]3CCCC/C=C\CCCCN4CC[C@@H]([C@H](CCCCCC/1)C4)[C@H](C3)C2	5.6 µM	4.56 µM	> 20.2 µM	17.4 µM	4.03 µM	5.74 µM	21.4 µM	6.71 µM	3.48 µM	14.5 µM	3.67 µM	4.5 µM
COc1ccccc1N1CCN(Cn2c(=O)oc3cccnc32)CC1	> 100 µM	> 100 µM	> 100 µM	> 100 µM		> 100 µM	> 100 µM	> 100 µM	> 100 µM	> 100 µM		> 100 µM
Cc1cn(Cc2ccccc2CCl)c(=O)[nH]c1=O	24.8 µM	33.8 µM	> 100 µM		37.4 µM	38.1 µM	43.4 µM	34.1 µM	12.6 µM	44.2 µM	28.2 µM	19 µM
COc1ccc(-c2cc(-c3cc(OC)c(OC)c(OC)c3)cc(-c3cc4ccccc4oc3=O)n2)cc1	17.3 µM	62.2 µM	16.8 µM	17.6 µM	> 100 µM	16.7 µM		> 100 µM	68.3 µM	76.8 µM	33.6 µM	> 100 µM
CCC(=O)O[C@H]1CC[C@H]2[C@@H]3CCC4=C/C(=N/NC(=O)c5cccc6c(=O)c7ccccc7[nH]c56)CC[C@]4(C)[C@H]3CC[C@]12C		> 25 µM	> 25 µM	> 25 µM	> 25 µM	> 25 µM	> 25 µM	> 25 µM	> 25 µM	> 25 µM	> 25 µM	> 25 µM
O[C@@H]1C[C@@H]2N[C@@](O)(C[C@@H]2O)[C@H]1O			> 100 µM	> 100 µM	> 100 µM	> 100 µM	> 100 µM	> 100 µM	> 100 µM	> 100 µM	> 100 µM	> 100 µM
C=CC[C@H](C)CCC(=O)N1[C@H]2CC3CC[C@@]2(CS1(=O)=O)C3(C)C	> 100 µM	> 100 µM	> 100 µM	> 100 µM	> 100 µM	> 100 µM	> 100 µM	> 100 µM		> 100 µM	> 100 µM	> 100 µM
